The NIST ThermoML archive (doi:10.1016/j.jct.2015.09.022)

Assay: xn = mol fraction of the nth substance listed
Settings: 100.7 kPa, Liquid; for viscosity: Falling or rolling sphere viscometry; for speed of sound: Frequency=3 MHz, Sing-around technique in a fixed-path interferometer; for mass density: Vibrating tube method

CCCCN [1-butanamine] + CCCC[n+]1ccn(C)c1.O=S(=O)([N-]S(=O)(=O)C(F)(F)F)C(F)(F)F
Settings | mass density [kg/m3] | speed of sound [m/s] | viscosity [mPa·s]
298.15 K, x2 = 0 | 733.33 | 1246.5 | 0.47
298.15 K, x2 = 0.0261 | – | 1234 | –
298.15 K, x2 = 0.0486 | – | 1225.4 | –
298.15 K, x2 = 0.0804 | – | 1216.5 | –
298.15 K, x2 = 0.1026 | 916.12 | 1211.6 | 2.11
298.15 K, x2 = 0.2026 | 1042.14 | 1203.5 | 4.44
298.15 K, x2 = 0.3004 | 1134.03 | 1203.2 | 7.22
298.15 K, x2 = 0.4056 | 1209.89 | 1205.1 | 11.01
298.15 K, x2 = 0.5051 | 1266.69 | 1208 | 14.99
298.15 K, x2 = 0.6119 | 1316.23 | 1212 | 20.24
298.15 K, x2 = 0.7025 | 1351.49 | 1215.1 | 25.4
298.15 K, x2 = 0.8002 | 1383.95 | 1218.1 | 32.04
298.15 K, x2 = 0.9015 | 1412.83 | 1222.9 | 40.3
303.15 K, x2 = 0 | 728.5 | 1223.9 | 0.44
303.15 K, x2 = 0.0261 | – | 1212.2 | –
303.15 K, x2 = 0.0486 | – | 1204.5 | –
303.15 K, x2 = 0.0804 | – | 1196.3 | –
303.15 K, x2 = 0.1026 | 911.59 | 1192.1 | 1.59
303.15 K, x2 = 0.2026 | 1037.64 | 1186.4 | 3.23
303.15 K, x2 = 0.3004 | 1129.36 | 1187.1 | 5.31
303.15 K, x2 = 0.4056 | 1205.12 | 1190 | 8.35
303.15 K, x2 = 0.5051 | 1262.02 | 1193.8 | 11.71
303.15 K, x2 = 0.6119 | 1311.69 | 1198.9 | 16.01
303.15 K, x2 = 0.7025 | 1346.8 | 1203 | 20.08
303.15 K, x2 = 0.8002 | 1379.23 | 1208 | 25.55
303.15 K, x2 = 0.9015 | 1408.07 | 1212.9 | 32.07
308.15 K, x2 = 0 | 723.67 | 1201.3 | 0.41
308.15 K, x2 = 0.0261 | – | 1190.3 | –
308.15 K, x2 = 0.0486 | – | 1183.5 | –
308.15 K, x2 = 0.0804 | – | 1177.2 | –
308.15 K, x2 = 0.1026 | 907.02 | 1174.1 | 1.31
308.15 K, x2 = 0.2026 | 1033.16 | 1169 | 2.63
308.15 K, x2 = 0.3004 | 1124.87 | 1170.3 | 4.2
308.15 K, x2 = 0.4056 | 1200.55 | 1174.5 | 6.58
308.15 K, x2 = 0.5051 | 1257.23 | 1178.9 | 9.28
308.15 K, x2 = 0.6119 | 1306.91 | 1184.8 | 12.71
308.15 K, x2 = 0.7025 | 1342.12 | 1189.6 | 16.01
308.15 K, x2 = 0.8002 | 1374.49 | 1195.6 | 20.49
308.15 K, x2 = 0.9015 | 1403.3 | 1200.9 | 26.13
313.15 K, x2 = 0 | 718.66 | 1178.7 | 0.39
313.15 K, x2 = 0.0261 | – | 1169.5 | –
313.15 K, x2 = 0.0486 | – | 1163.2 | –
313.15 K, x2 = 0.0804 | – | 1157.5 | –
313.15 K, x2 = 0.1026 | 902.44 | 1155 | 1.1
313.15 K, x2 = 0.2026 | 1028.65 | 1152.5 | 1.99
313.15 K, x2 = 0.3004 | 1120.14 | 1155.1 | 3.21
313.15 K, x2 = 0.4056 | 1195.66 | 1160 | 4.98
313.15 K, x2 = 0.5051 | 1252.53 | 1165.2 | 7.11
313.15 K, x2 = 0.6119 | 1302.05 | 1171.9 | 9.9
313.15 K, x2 = 0.7025 | 1337.26 | 1177.8 | 12.8
313.15 K, x2 = 0.8002 | 1369.77 | 1184.5 | 16.65
313.15 K, x2 = 0.9015 | 1398.51 | 1190.5 | 21.62
318.15 K, x2 = 0 | 714.1 | 1156.2 | 0.37
318.15 K, x2 = 0.0261 | – | 1148.2 | –
318.15 K, x2 = 0.0486 | – | 1143.2 | –
318.15 K, x2 = 0.0804 | – | 1138.2 | –
318.15 K, x2 = 0.1026 | 898.17 | 1137.8 | 0.87
318.15 K, x2 = 0.2026 | 1024.27 | 1137.2 | 1.57
318.15 K, x2 = 0.3004 | 1115.68 | 1141.4 | 2.53
318.15 K, x2 = 0.4056 | 1191.05 | 1146.8 | 3.95
318.15 K, x2 = 0.5051 | 1247.99 | 1152.5 | 5.65
318.15 K, x2 = 0.6119 | 1297.45 | 1160 | 7.95
318.15 K, x2 = 0.7025 | 1332.6 | 1167 | 10.45
318.15 K, x2 = 0.8002 | 1364.99 | 1174.2 | 13.75
318.15 K, x2 = 0.9015 | 1393.75 | 1180.5 | 17.99
323.15 K, x2 = 0 | 709.21 | 1133.5 | 0.35
323.15 K, x2 = 0.0261 | – | 1126.2 | –
323.15 K, x2 = 0.0486 | – | 1121.5 | –
323.15 K, x2 = 0.0804 | – | 1117.8 | –
323.15 K, x2 = 0.1026 | 893.96 | 1118.6 | 0.74
323.15 K, x2 = 0.2026 | 1019.8 | 1119 | 1.32
323.15 K, x2 = 0.3004 | 1110.93 | 1124.5 | 2.09
323.15 K, x2 = 0.4056 | 1186.44 | 1130.6 | 3.26
323.15 K, x2 = 0.5051 | 1243.22 | 1137.2 | 4.64
323.15 K, x2 = 0.6119 | 1292.55 | 1145.6 | 6.49
323.15 K, x2 = 0.7025 | 1327.75 | 1153 | 8.48
323.15 K, x2 = 0.8002 | 1360.33 | 1161.3 | 11.32
323.15 K, x2 = 0.9015 | 1389.17 | 1168.3 | 14.91
